Assay results reported in patent publication US9662387B2, “Functional, cross-linked nanostructures for tandem optical imaging and therapy” (Mallinckrodt LLC, priority 2010, dated 2017).
Where two headings read alike, the source gives them in different places.

Assays:
[1] = DOX release experiments from dialysis cassette, Higuchi fit and f1/f2 profile comparison; format: physicochemical; settings: at either pH value (5.0 or 7.4)
Protocol: General procedure for the DOX release experiments: To a presoaked dialysis cassette (Slide-A-Lyzer, 10 kDa MWCO, Pierce Biotechnology, Rockford Ill., USA) was added ca. 7 mL of the DOX-loaded SCK or SC-rod solution. The cassette was stirred in a beaker containing 4 L of 5 mM PBS at pH 5.0 or 7.4 and 37° C. for a period of 52 hrs. Samples (ca. 1 mL) were removed from the cassette at 0, 1, 2, 3, 5, 7, 9, 15, 21, 27, 39 and 52 h and analyzed by UV-vis spectroscopy (488 nm, ε=13050 M^−1 cm^−1) and injected back to the cassette immediately after the analysis. DOX release data points were then fitted to a third order polynomial equation.
DOX-SCR or DOX-SCK (ca. 4 mL) was transferred to a presoaked dialysis cassette (Slide-A-Lyzer, 10 kDa MWCO, Pierce Biotechnology, Rockford Ill., USA). […] Samples (ca. 1.5 mL) were removed from the cassette at 0, 1, 2, 4, 6, 9, 12, 18, 24, 30, 40, 50 and 60 h, analyzed by UV-vis (488 nm, 6=12500 M^−1cm^−1 determined by a calibration curve in PBS), and then returned to the cassette. […]
To further quantitatively understand the differences and similarities in DOX release profiles, model-independent methods were used to calculate f1, the difference factor, and f2, the similarity factor (F. O. Costa, J. J. S. Sousa, A. Pais, S. J. Formosinho, J. Controlled Release 2003, 89, 199; J. W. Moore, H. H. Flanner, Pharm. Tech. 1996, 20, 67.): […]

[2] = Core loading of phototherapeutic agent into micelles; format: physicochemical; settings: poly(p-hydroxystyrene) core; shown previously
Protocol: Core loading was achieved by addition of MP-3397 stock solution (in DMF) into aqueous micelle solution followed by removal of organic solvent through dialysis. Alternatively, MP-3397 stock solution incubated with block copolymer (both in DMF) underwent co-assembly upon addition of water followed by dialysis. In an example, poly(p-hydroxystyrene) core achieved maximum of 5 wt % core loading whereas polystyrene core achieved ca. 15 wt %.

KB cells = test: EST-1 cell viability assay using KB cells (cell cytotoxicity); format: cell-based; settings: Homo sapiens
Protocol: Table 3 provides 1050 data for the EST-1 cell viability assay using KB cells with 2 hour treatment with the particles described above. […] HPLC and MS analyses were in agreement with the determination of PTX concentration.
Table 5 provides results of cell cytotoxicity 1050 data for the EST-1 cell viability assay using KB cells with the particles described above. “ND” means not determined.

doxorubicin [free DOX]
time to complete release from the dialysis cassette [1]: ≤ 4 h | DOX release from the dialysis cassette ([1]; in 3 h): 95%

Oc1c(I)cc(I)c(-c2c(I)cc(I)c(O)c2I)c1I [MP-4089]
core loading [2]: 15 wt %

CC(=O)O[C@H]1C(=O)[C@@]2(C)[C@H]([C@H](OC(=O)c3ccccc3)[C@]3(O)C[C@H](OC(=O)[C@H](O)[C@@H](NC(=O)c4ccccc4)c4ccccc4)C(C)=C1C3(C)C)[C@]1(OC(C)=O)CO[C@@H]1C[C@@H]2O [Paclitaxel, paclitaxel]
IC50 (KB cells; 2 hr treatment, 60 nm particles, read-out: PTX 2 hr IC50): 50 nM | IC50 (KB cells; 72 hr, 60 nm particles, read-out: PTX 72 hr IC50): 7 nM | IC50 (KB cells; after one day of loading, 10 nm vs. 20 nm particles, read-out: 2 hr IC50): 45 nM | IC50 (KB cells; after two weeks of loading, 10 nm vs. 20 nm particles, read-out: 72 hr IC50): 2 nM
